A word on the Cmax: it is the maximum level reached in the sampled fluid or tissue. The EC50 is the concentration at which the effect is half-maximal.

Data set [1] can be described thus: Mouse pharmacokinetics after oral gavage, plasma drug concentration by LC-MS/MS (BALB/c). It counts as in vivo. The settings on record: 10 mg/kg, male mice; for Cmax / AUC(0-t): mouse, plasma; for AUC(0-t): read-out: AUC0-24. The procedure:
(§1) Compounds were formulated in 5% DMSO/5% Tween20 in H2O, sonicated, vortexed, and put on stir plate overnight at a dose volume of 10 mL/kg. Balb/C (Jackson laboratories) or C57bl/6 (Taconic Biosciences) mice (8-9 weeks old) were acclimated to the colony for 3 days prior to dosing. Water and food were provided ab libitum. Compounds were administered by oral gavage. Groups of six animals received 3 to 4 bleeds per day with one terminal bleed. The time points were 30 min, 1 h, 2 h, 4 h, 6 h, 8 h, 24 h. Plasma was collected via centrifugation and analyzed for drug concentrations.
(§2) Preparation of Study Samples and Standards for Analysis by LC-MS/MS
(§3) 50 μl of plasma was aliquoted into a 96 well deep-well polypropylene plate (2 mL) to which 5 μL of DMSO was added. For standards, 5 μl of test compound in DMSO at […] the standard concentration was added to 50 μl of blank matrix in a 96 well deep-well polypropylene plate. For example, for a 300 nM standard, the 10× DMSO concentration was 3 μM. Study samples that require dilution are diluted with the appropriate blank matrix. For example, for a 10× dilution, 5 μL of study sample is added to 45 μl of blank matrix. Protein was precipitated from study samples and standards with the addition of 150 μl of acetonitrile. After a clean plate map was placed firmly over the top of the 96-well plate, a bench top shaker was used for 1 min to ensure complete precipitation of protein. The precipitated protein was pelleted by centrifuging for 3,000 rpm for 10 min at 20° C. and then the clear supernatant was transferred to a clean 96-well plate and spun again under the same conditions in order to pellet any solid material that may have been transferred.
(§4) Analysis of Study Samples and Standards with LCMS with MRM Detection
(§5) An Agilent 1200 HPLC with binary pump and a Leap CTC with fast wash autosampler were used to introduce samples to the mass spectrometer.
(§6) The column used was a Phenomenex Luna C8 30×2 mm 5 μm with a security guard. Mass detection was performed by an Applied Biosystems 4000 Qtrap in MRM mode and ionization was achieved by positive electrospray with a source temperature of 500° C. The ion transitions, […] potential and collision energies were dependent on the specific analyte.
(§7) Prepared samples were usually analyzed in reverse chronological order with bracketing standard curves. Typically at least 6 standards were used for quantification with a percent accuracy of +/−15% for all standards except at the LLOQ where a percent accuracy of +/−20% was allowed. The concentration time profile was fit using a one compartment model for the applicable mode of dosing using Phoenix WinNonLin 6.4.

Data set [2] is described as follows: Mouse pharmacokinetics after oral gavage, plasma drug concentration by LC-MS/MS (C57BL/6). The data set is classed as in vivo, C57bl/6 mice. The settings on record: male mice; for Cmax / AUC(0-t): mouse, plasma; for AUC(0-t): read-out: AUC0-24. As to the method: as §1, §2, §3, §4, §5, §6, §7
Data set [3] deals with T1, CXCR3 (Homo sapiens, UniProt P49682).
T1 construct: host or cells: CHO-K1 (cAMP Hunter CHOK1 CXCR3 Gi cell line)
T1 sequence (P49682 1-368): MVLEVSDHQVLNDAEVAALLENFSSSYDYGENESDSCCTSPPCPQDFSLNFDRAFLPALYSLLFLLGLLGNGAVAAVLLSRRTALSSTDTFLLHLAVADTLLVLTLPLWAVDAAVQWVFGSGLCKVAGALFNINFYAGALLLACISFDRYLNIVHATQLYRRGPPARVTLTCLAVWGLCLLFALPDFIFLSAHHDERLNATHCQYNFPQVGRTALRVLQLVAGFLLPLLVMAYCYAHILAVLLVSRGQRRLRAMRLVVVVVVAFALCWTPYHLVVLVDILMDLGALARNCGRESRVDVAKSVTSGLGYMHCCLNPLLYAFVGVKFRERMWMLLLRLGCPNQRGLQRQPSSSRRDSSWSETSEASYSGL
The experiment in a line: CXCR3 cAMP agonist assay (cAMP Hunter CHOK1 CXCR3 Gi cell line, forskolin-stimulated, HitHunter cAMP detection). The data set is classed as cell-based. The note with it: cAMP Hunter CHOK1 CXCR3 Gi cells, 20 μM forskolin, 30 minutes; read-out: Activity (CXCR3 cAMP agonist assay compound EC50). A digest of the protocol: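 CHOK1 cells expressing human CXCR3 with Gi coupling, 50,000/well in suspension in HBSS/10 mM HEPES/0.1% BSA pH 7.4, were co-treated with 20 μM forskolin and compound (12-point, 0-10 μM, 1% DMSO) for 30 min. cAMP was read by enzyme-complementation luminescence; CXCL11 dose response set maximum efficacy.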

The structures appear in SMILES notation. Bounds are passed on as bounds.

Regarding `NCCCC[C@H](NC(=O)[C@@H]1Cc2ccccc2CN1C(=O)CCC(=O)c1ccccc1)C(=O)NCC(c1ccccc1)c1ccccc1` [B], in data set [1], the AUC0-24 entry is recorded as “BLQ”, the “apparent oral clearance (CL/F)” value is listed as “BQL” and the concentration peaked (Cmax) at 7 nM. For the same compound, in data set [2] (C57BL/6, 10 mg/kg), the “apparent oral clearance (CL/F)” value turned out to be 9000 mL/min/kg, the concentration peaked (Cmax) at 30 nM and the AUC(0-t) came to 0.029 µM·h.
Consider `NCC[C@H](NC(=O)[C@@H]1Cc2ccccc2CN1C(=O)CCC(=O)c1ccccc1)C(=O)Nc1ccc(Cl)c(Cl)c1` [Compound 2-1, (S)—N—((S)-4-amino-1-((3,4-dichlorophenyl)amino)-1-oxobutan-2-yl)-2-(4-oxo-4-phenylbutanoyl)-1,2,3,4-tetrahydroisoquinoline-3-carboxamide], for which the EC50 in data set [3] was in the range of 50 to 250 nM. In data set [1], the “apparent oral clearance (CL/F)” value turned out to be 66 mL/min/kg, the highest level (Cmax) was 1800 nM and the AUC(0-t) came out at 4.3 µM·h.
As to `Cc1cc(NC(=O)[C@H](CCCCNC(C)C)NC(=O)[C@@H]2Cc3ccccc3CN2C(=O)CCC(=O)c2ccccc2)ccc1Cl` [Compound 4-6], in data set [3], the concentration giving a half-maximal response (EC50) is below 50 nM. Further, in data set [1], the “apparent oral clearance (CL/F)” value is reported as 158 mL/min/kg, the peak level (Cmax) was 1200 nM and the AUC(0-t) was 1.7 µM·h. Further, in data set [2] (C57BL/6, 10 mg/kg), the “apparent oral clearance (CL/F)” value is 2346 mL/min/kg, the Cmax was found to be 70 nM and the AUC(0-t) came to 0.11 µM·h.
As for `Cc1cc(NC(=O)[C@H](CCN)NC(=O)[C@@H]2Cc3ccccc3CN2C(=O)CCC(=O)c2ccccc2)ccc1Cl` [Compound 2-2], the EC50 in data set [3] is below 50 nM. Further, the Cmax in data set [1] stood at 3500 nM; in data set [2] (C57BL/6, 10 mg/kg), 900 nM; in data set [2] (C57BL/6, 60 mg/kg) it was 2700 nM. Further, the “apparent oral clearance (CL/F)” value was found to be 176 mL/min/kg in data set [2] (C57BL/6, 10 mg/kg) and 266 mL/min/kg in data set [2] (C57BL/6, 60 mg/kg). Besides, the AUC(0-t) in data set [2] (C57BL/6, 10 mg/kg) was 1.7 µM·h; in data set [2] (C57BL/6, 60 mg/kg), 6.7 µM·h.
With `Cc1cc(NC(=O)[C@H](CCN)NC(=O)[C@@H]2Cc3ccccc3CN2C(=O)CCC(=O)c2ccccc2)c(Cl)cc1Cl` [Compound 2-22], the EC50 in data set [3] was below 50 nM. Moreover, in data set [1], the “apparent oral clearance (CL/F)” value is listed as 10 mL/min/kg, the Cmax was 4200 nM and the AUC(0-t) was 27 µM·h. Further, in data set [2] (C57BL/6, 10 mg/kg), the “apparent oral clearance (CL/F)” value was determined as 19 mL/min/kg, the Cmax was found to be 2900 nM and the AUC(0-t) stood at 15.1 µM·h.
On to `Cc1cc(NC(=O)[C@H](CCNC(C)C)NC(=O)[C@@H]2Cc3ccccc3CN2C(=O)CCC(=O)c2ccccc2)ccc1Cl` [Compound 8-3], for which the EC50 in data set [3] is below 50 nM. In data set [1], the “apparent oral clearance (CL/F)” value was 56 mL/min/kg, the highest level (Cmax) was 800 nM and the AUC(0-t) worked out at 4.9 µM·h. Besides, in data set [2] (C57BL/6, 10 mg/kg), the “apparent oral clearance (CL/F)” value was 246 mL/min/kg, the concentration peaked (Cmax) at 330 nM and the AUC(0-t) amounted to 1.2 µM·h.
For the compound `Cc1cc(NC(=O)[C@H](CCN)NC(=O)[C@@H]2Cc3ccccc3CN2C(=O)CCC(=O)c2ccccc2)c(C)cc1Cl` [Compound 2-19], the EC50 in data set [3] is below 50 nM. In data set [1], the “apparent oral clearance (CL/F)” value was found to be 59 mL/min/kg, the Cmax is 1300 nM and the AUC(0-t) turned out to be 4.9 µM·h.
With `NCC[C@H](NC(=O)[C@@H]1Cc2ccccc2CN1C(=O)CCC(=O)c1ccccc1)C(=O)Nc1ccc(Cl)c(Cl)c1F` [Compound 2-24], the EC50 in data set [3] was below 50 nM. Also, in data set [1], the “apparent oral clearance (CL/F)” value came to 23 mL/min/kg, the peak level (Cmax) was 3300 nM and the AUC(0-t) came out at 12.3 µM·h. Moreover, in data set [2] (C57BL/6, 10 mg/kg), the “apparent oral clearance (CL/F)” value turned out to be 38 mL/min/kg, the Cmax stood at 1000 nM and the AUC(0-t) amounted to 7 µM·h. In addition, in data set [2] (C57BL/6, 60 mg/kg), the “apparent oral clearance (CL/F)” value came out at 58 mL/min/kg, the Cmax came out at 3000 nM and the AUC(0-t) came out at 29 µM·h.
Take `Cc1cccc(NC(=O)[C@H](CCN)NC(=O)[C@@H]2Cc3ccccc3CN2C(=O)CCC(=O)c2ccccc2)c1` [Compound 2-5]: the EC50 in data set [3] was below 50 nM. In data set [1], the “apparent oral clearance (CL/F)” value worked out at 389 mL/min/kg, the Cmax is 500 nM and the AUC(0-t) was found to be 0.8 µM·h.
Consider `NCCCC[C@H](NC(=O)[C@@H]1Cc2ccccc2CN1C(=O)CCC(=O)c1ccccc1)C(=O)Nc1ccc(Cl)c(F)c1` [Compound 1-20], for which, in data set [3], the EC50 lay within 50 to 250 nM. Also, in data set [1], the “apparent oral clearance (CL/F)” value turned out to be 527 mL/min/kg, the Cmax was 230 nM and the AUC(0-t) worked out at 0.53 µM·h.
In the case of `Cc1c(NC(=O)[C@H](CCCCN)NC(=O)[C@@H]2Cc3ccccc3CN2C(=O)CCC(=O)c2ccccc2)ccc(Cl)c1Cl` [Compound 1-25], in data set [3], the EC50 was below 50 nM. In data set [1], the “apparent oral clearance (CL/F)” value is listed as 782 mL/min/kg, the Cmax was found to be 70 nM and the AUC(0-t) was determined as 0.34 µM·h.
On to `N=C(N)NCCC[C@H](NC(=O)[C@@H]1Cc2ccccc2CN1C(=O)CCC(=O)c1ccccc1)C(=O)NCC1CCCCC1` [A], for which, in data set [1], the AUC0-24 entry is “BLQ”, the “apparent oral clearance (CL/F)” value is reported as “BQL” and the highest level (Cmax) was 4 nM. Further, in data set [2] (C57BL/6, 10 mg/kg), the AUC0-24 result is given as “BQL”, the “apparent oral clearance (CL/F)” value was “BQL” and the highest level (Cmax) was 2 nM.
As to `Cc1cc(NC(=O)[C@H](CCCN)NC(=O)[C@@H]2Cc3ccccc3CN2C(=O)CCC(=O)c2ccccc2)ccc1Cl` [Compound 4-3], the EC50 in data set [3] was below 50 nM. Besides, in data set [1], the “apparent oral clearance (CL/F)” value worked out at 4627 mL/min/kg, the highest level (Cmax) was 30 nM and the AUC(0-t) was 0.06 µM·h.
On to `Cc1cc(NC(=O)[C@H](CCN)NC(=O)[C@@H]2Cc3ccccc3CN2C(=O)CCC(=O)c2ccccc2)c(F)cc1Cl` [Compound 2-18], for which the EC50 in data set [3] is below 50 nM. Moreover, in data set [1], the “apparent oral clearance (CL/F)” value was found to be 47 mL/min/kg, the Cmax was determined as 2900 nM and the AUC(0-t) is 6.2 µM·h.
On to `CNCCCC[C@H](NC(=O)[C@@H]1Cc2ccccc2CN1C(=O)CCC(=O)c1ccccc1)C(=O)Nc1ccc(Cl)c(C)c1` [Compound 4-4], for which, in data set [3], the EC50 is below 50 nM. Moreover, in data set [1], the peak level (Cmax) was 20 nM and the AUC(0-t) was determined as 0.03 µM·h.
With `Cc1ccc(NC(=O)[C@H](CCN)NC(=O)[C@@H]2Cc3ccccc3CN2C(=O)CCC(=O)c2ccccc2)cc1C(F)(F)F` [Compound 2-7], the EC50 in data set [3] was below 50 nM. Also, in data set [1], the “apparent oral clearance (CL/F)” value is listed as 86 mL/min/kg, the highest level (Cmax) was 1900 nM and the AUC(0-t) stood at 3.3 µM·h.
`NCCCC[C@H](NC(=O)[C@@H]1Cc2ccccc2CN1C(=O)CCC(=O)c1ccccc1)C(=O)Nc1ccc(F)c(C(F)(F)F)c1` [Compound 1-26]: in data set [3], the EC50 was below 50 nM. Besides, in data set [1], the peak level (Cmax) was 3 nM and the AUC(0-t) was determined as 0.006 µM·h.
Turning to `Cc1cc(Cl)c(Cl)cc1NC(=O)[C@H](CCN)NC(=O)[C@@H]1Cc2ccccc2CN1C(=O)CCC(=O)c1ccccc1` [Compound 2-21], in data set [3], the EC50 is below 50 nM. Besides, in data set [1], the “apparent oral clearance (CL/F)” value is reported as 65 mL/min/kg, the concentration peaked (Cmax) at 900 nM and the AUC(0-t) is 4.3 µM·h.

Source of the values: patent US11040954B1, “CXCR3 receptor agonists” (RECEPTOS LLC, priority 2016, dated 2021).
